Values quoted from earlier work in patent US20090317483A1, “Bicomponent Bioadhesive for Biomedical Use” (INSTITUTO OFTALMOLOGICO DE ALICANTE, S.L., priority 2004, published 2009).

Details: in vivo

C=C(C#N)C(=O)OCCCC [butyl cyanoacrylate]
closure of corneal perforations: effective
